Results on five compounds are retold here after patent publication US8460644B2, “Synergistic mixed poloxamer systems for the solubilisation of drugs” (IS Pharmaceuticals Limited, priority 2001, dated 2013).

Data set [1] can be described thus: Maximum additive concentration (MAC) and degree of synergistic solubilisation in aqueous P407+P188 mixtures. Type of data set: physicochemical. The protocol:
The maximum additive concentration (MAC) and degree of synergistic solubilisation was determined for a selection of water insoluble and sparingly soluble actives in aqueous P407+P188 mixtures.
For each active, the MAC was determined in the following aqueous poloxamer solutions:
As an aid to evaluating the level of synergistic solubilisation present within the system, the experimental data given in FIGS. 1-3 also includes the calculated MAC's of the systems that would be expected if the poloxamers comprising the mixture were solubilising independently and the overall MAC were simply the sum of the individual MAC's for the two components or admixture.

The conditions of data set [2]: cited from earlier work.
[3] abbreviates: 3% w/v P407 + 7% w/v P188 in water.
[4] abbreviates: 7% w/v P407 + 3% w/v P188 in water.

Read-outs that look alike come from different tables or passages of the source.

As to `CCN(CC)CC(=O)Nc1c(C)cccc1C` [Lidocaine, 2-diethylamino-2′,6′-acetoxylidide], the results for the “synergistic ratio, MACexperimental/MACadmixture” value in data set [1] (setting [3]) and in data set [1] (setting [4]) were 1.5 and 1.4, respectively.
For the compound `Cc1ccc(C(C)C)cc1O` [Carvacrol, 2-methyl-5-(1-methylethyl)phenol], the “synergistic ratio, MACexperimental/MACadmixture” value in data set [1] (setting [3]) was 2.1; in data set [1] (setting [4]), 1.8.
On to `CCCCCCC(=O)OCCN1CCN(CCCN2c3ccccc3Sc3ccc(C(F)(F)F)cc32)CC1` [Fluphenazine enanthate, 2-{4-[3-(2-trifluoromethylphenothiazin-10-yl)propyl]piperazin-1-yl}ethyl heptanoate], for which the “synergistic ratio, MACexperimental/MACadmixture” value in data set [1] (setting [3]) is recorded as 2.5; in data set [1] (setting [4]) it was 1.8.
Regarding `CN1C(=O)CN=C(c2ccccc2)c2cc(Cl)ccc21` [diazepam], the “incidence of pain on injection” value is listed as 37% in data set [2] (formulated in a mixture of propylene glycol and water); 0% in data set [2] (formulated in an emulsion form).
Turning to `CCCCCCCCCC(=O)OCCN1CCN(CCCN2c3ccccc3Sc3ccc(C(F)(F)F)cc32)CC1` [Fluphenazine decanoate, 2-{4-[3-(2-trifluoromethyl-phenothiazin-10-yl)propyl]piperazin-1-yl}ethyl decanoate], the “synergistic ratio, MACexperimental/MACadmixture” value in data set [1] (setting [3]) is reported as 3.6; in data set [1] (setting [4]) it was 1.6.
